Key:
[1] = tested on: Bb fragment of complement Factor B; test: SAD study: Bb plasma concentrations; type: in vivo, human; conditions: for mean Bb plasma concentration: eight hours post-dosing
Procedure: […] were dosed and evaluated in 4 dose groups with ten subjects receiving placebo (Table 1). The first dose group had 6 active and 6 placebo subjects; subsequent groups had 6 active and 2 placebo subjects each. Each group was followed for 28 days after dosing. All subjects were monitored for safety through the last scheduled visit at Day 28. Blood and urine samples were collected at predefined time points from Days 1 to 4 to determine plasma and urine concentrations of Compound 1 and from Days 1 to 7 to determine complement related activities. Results of serum AP activity measured by AP Wieslab assay as well as plasma Bb, factor D level and several other PD biomarkers were determined.
A graphical display of mean plasma Bb concentrations through Day 7 (reported in days) and within 24 hours of dosing (by randomized treatment group and overall) can be found in FIG. 9B and FIG. 9A, respectively. All Compound 1 dose groups evaluated had significant reductions in Bb plasma concentrations after single dose administration relative to baseline and the placebo-treated group as illustrated in FIG. 9A and FIG. 9B. Although the number of subjects evaluated in individual dose groups was relatively small (n=6), the magnitude of changes observed appeared to be dose-dependent. At baseline, the 40 mg, 80 mg, and 120 mg dose groups had Bb plasma concentrations within the normal reference range for the assay (i.e., 0.49 to 1.42 μg/mL); 40 mg, 80 mg, and 120 mg dose groups had mean (±SD) baseline values of 0.80 (±0.195) μg/mL, 0.78 (±0.128) μg/mL, and 0.70 (±0.095) μg/mL, respectively. Bb plasma concentrations reached a nadir 6 hours (in the 40 mg dose group) to 8 hours (in the 80 mg and 120 mg dose groups) post-dosing. Six hours post-dosing, mean (±SD) Bb plasma concentration in the 40 mg dose group had decreased to 0.51 (±0.091) μg/mL. Eight hours post-dosing, mean Bb plasma concentration had decreased to 0.48 (±0.056) μg/mL for the 80 mg dose group and 0.40 (±0.029) μg/mL for the 120 mg dose group. For the 80 mg and 120 mg dose groups, mean Bb plasma concentrations increased to above the LLN for the assay by 10 hours post-dosing (for the 80 mg dose group) and 24 hours (Day 2) (for the 120 mg dose group) post-dosing, respectively, with return to baseline values by 48 hours (Day 3) post-dosing. No subjects had treatment-emergent abnormalities in Bb plasma concentrations during the study.

[2] = tested on: Bb fragment of complement Factor B; test: MAD study single-dose cohorts: plasma Bb concentration by ELISA; type: in vivo, human; conditions: 240 mg single dose
Procedure: FIG. 15 is a graphical display of mean plasma Bb concentration as determined by ELISA assay for all subjects in the first 24 hours after administration of Compound 1 at single doses of 240 mg in fasted subjects (n=6), 120 mg in fed subjects (n=6) and placebo (n=4). Horizontal dashed gridlines represent: upper limit of normal (1.42 μg/ml); lower limit of normal (0.48 μg/ml); and lower limit of quantitation (LLOQ) (0.33 μg/ml). The x-axis is Time in hours and the y-axis is Mean Plasma Bb Concentration measured in μg/mL.
Serum AP hemolysis activity was assessed in samples collected at predefined time points from Day 1 (pre-dose) through Day 7. Ex vivo serum AP inhibition was more prolonged in the 240 mg dose group than previously observed in the SAD study at doses up to 120 mg (FIG. 14). […] Mean pre-dose (Day 1, 0 h) activity among active subjects was 123.02% (240 mg) and 110.43% (120 mg). Activity was reduced to 10% or lower from 1.5 h through 16 h in the 240 mg group, and from 2 h through 6 h in the 120 mg group. Activity was recovered to nearly pre-dose levels by 48 hours. AP activity in placebo subjects in contrast varied little from the pre-dose value of 109.52%, with a minimum value among all time points of 81.46%. […]

Question: What does the source list for `CC(=O)c1nn(CC(=O)N2[C@H](C(=O)Nc3nc(Br)ccc3C)C[C@@]3(C)C[C@@H]23)c2ccc(-c3cnc(C)nc3)cc12` [Compound 1, (1R,3S,5R)-2-(2-(3-acetyl-5-(2-methylpyrimidin-5-yl)-1H-indazol-1-yl)acetyl)-N-(6-bromo-3-methylpyridin-2-yl)-5-methyl-2-azabicyclo[3.1.0]hexane-3-carboxamide]?
Answer: time of Bb plasma concentration nadir post-dosing ([1]; 40 mg dose group): 6 h; mean (±SD) Bb plasma concentration ([1]; 40 mg single dose, six hours post-dosing): 0.51 (±0.091) μg/mL; time of Bb plasma concentration nadir post-dosing ([1]; 80 mg and 120 mg dose groups): 8 h; time for mean Bb plasma concentration to increase above the LLN ([1]; 80 mg dose group): ≤ 10 h; mean Bb plasma concentration ([1]; 80 mg single dose): 0.48 (±0.056) μg/mL; time for mean Bb plasma concentration to increase above the LLN ([1]; 120 mg dose group): ≤ 24 h; mean Bb plasma concentration ([1]; 120 mg single dose): 0.40 (±0.029) μg/mL; time of Bb return to baseline values post-dosing ([1]; SAD dose groups): ≤ 48 h; time plasma Bb remained near its nadir post-dose [2]: at least 16 hours

Reference: patent publication US12239645B2, “Targeted dosing for the treatment of complement mediated disorders” (Achillion Pharmaceuticals, Inc., priority 2018, dated 2025)
